Source: PubChem BioAssay (NCI)
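1) Cells in 96-well plates. 2) Compound, 48 h, 5 concentrations. 3) Linear interpolation between surrounding doses. 4) Unreached endpoint = highest concentration. At the TGI there is no net growth.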

Columns and labels:
Assay in all cases: inhibition of tumour cell growth, NCI panel, 48 h
[1] = test system: RXF 393 renal
[2] = test system: A498 renal
[3] = test system: NCI-H522 lung
[4] = test system: PC-3 prostate
[5] = test system: HS 578T breast
[6] = test system: HCC-2998 colon
[7] = test system: U251 CNS
[8] = test system: SF-268 CNS
[9] = test system: SW-620 colon
[10] = test system: OVCAR-8 ovarian
[11] = test system: NCI-H460 lung
[12] = test system: MDA-MB-435
[13] = test system: HT29 colon
[14] = test system: SN12C renal
[15] = test system: SK-MEL-28 melanoma
[16] = test system: RPMI-8226 leukemia
[17] = test system: MDA-MB-231 breast
[18] = test system: MCF7 breast
[19] = test system: UACC-257 melanoma
[20] = test system: IGROV1 ovarian
[21] = test system: CAKI-1 renal
[22] = test system: SNB-75 CNS
[23] = test system: MOLT-4 leukemia
[24] = test system: HCT-116 colon
[25] = test system: NCI-H23 lung
[26] = test system: LOX IMVI melanoma
[27] = test system: NCI/ADR-RES ovarian
[28] = test system: HOP-62 NSCLC
[29] = test system: COLO 205 colon
[30] = test system: SF-539 CNS
[31] = test system: TK-10 renal
[32] = test system: OVCAR-5 ovarian
[33] = test system: EKVX NSCLC
[34] = test system: SK-OV-3 ovarian
[35] = test system: NCI-H226 lung
[36] = test system: HOP-92 NSCLC
[37] = test system: SK-MEL-5 melanoma
[38] = test system: MALME-3M melanoma
[39] = test system: HL-60(TB) leukemia
[40] = test system: HCT-15 colon
[41] = test system: CCRF-CEM leukemia
[42] = test system: OVCAR-4 ovarian
[43] = test system: 786-0 renal
[44] = test system: A549 NSCLC
[45] = test system: DU-145 prostate
[46] = test system: MDA-N
[47] = test system: KM12 colon
[48] = test system: OVCAR-3 ovarian
[49] = test system: SR leukemia
[50] = test system: ACHN renal
[51] = test system: SNB-19 CNS
[52] = test system: UACC-62 melanoma
[53] = test system: SF-295 CNS
[54] = test system: M14 melanoma
[55] = test system: BT-549 breast
[56] = test system: SK-MEL-2 melanoma
[57] = test system: T-47D breast
[58] = test system: UO-31 renal
[59] = test system: K-562 leukemia

Molecule `COC(=O)C1=C(C)NC(C)=C(C(=O)OC)C1c1ccc(NO)cc1` has a TGI [1] of 36 µM, a TGI [2] of 93.8 µM and a TGI [3] of 12.2 µM. It also gave a TGI [4] of 26.3 µM, a TGI [5] of 47.3 µM and a TGI [6] of 35.1 µM. It also gave a TGI [7] of 29.9 µM, a TGI [8] of 43.1 µM and a TGI [9] of 19.8 µM. For the same molecule, the TGI [10] was 24.7 µM, the TGI [11] was 33.9 µM and the TGI [12] was 28.7 µM. It also gave a TGI [13] of 29.8 µM, a TGI [14] of 33.6 µM and a TGI [15] of 34.1 µM. For the same molecule, the TGI [16] was 16.4 µM, the TGI [17] was 26.6 µM and the TGI [18] was 19.2 µM. It also gave a TGI [19] of 15.7 µM, a TGI [20] of 30.9 µM and a TGI [21] of 29.1 µM. For the same molecule, the TGI [22] was 45.8 µM, the TGI [23] was > 22.4 µM and the TGI [24] was 21.8 µM. It also gave a TGI [25] of 49.8 µM, a TGI [26] of 12.9 µM and a TGI [27] of 48.5 µM. It also gave a TGI [28] of 32.9 µM, a TGI [29] of 29.2 µM and a TGI [30] of 29.6 µM. It also gave a TGI [31] of 30.9 µM, a TGI [32] of 29.8 µM and a TGI [33] of 47.4 µM. For the same molecule, the TGI [34] was 50.3 µM, the TGI [35] was 47.1 µM and the TGI [36] was 12.7 µM. For the same molecule, the TGI [37] was 30.1 µM, the TGI [38] was 25.8 µM and the TGI [39] was > 20.2 µM. The TGI [40] was 26.5 µM, the TGI [41] was > 27.3 µM and the TGI [42] was 25 µM. For the same molecule, the TGI [43] was 28.9 µM, the TGI [44] was 43.5 µM and the TGI [45] was 35.8 µM. The TGI [46] was 24.7 µM, the TGI [47] was 31.6 µM and the TGI [48] was 26.7 µM. For the same molecule, the TGI [49] was > 20.4 µM, the TGI [50] was 25.8 µM and the TGI [51] was > 78.8 µM. It also gave a TGI [52] of 26.8 µM, a TGI [53] of 33.1 µM and a TGI [54] of 27.9 µM. For the same molecule, the TGI [55] was 26.5 µM, the TGI [56] was 34.2 µM and the TGI [57] was 32.7 µM. It also gave a TGI [58] of 23.5 µM and a TGI [59] of 8.07 µM.
`O=C(O)c1ccccc1C1CCCc2c1[nH]c1ccccc21` (configuration not stated) was tested, and the TGI [1] was > 100 µM, the TGI [2] was 85.9 µM and the TGI [3] was > 100 µM. The TGI [4] was > 100 µM, the TGI [5] was > 100 µM and the TGI [6] was > 100 µM. For the same molecule, the TGI [7] was > 100 µM, the TGI [8] was > 100 µM and the TGI [9] was > 100 µM. The TGI [10] was > 100 µM, the TGI [11] was > 100 µM and the TGI [12] was > 100 µM. For the same molecule, the TGI [13] was > 100 µM, the TGI [14] was > 100 µM and the TGI [15] was > 100 µM. The TGI [16] was > 100 µM, the TGI [17] was > 100 µM and the TGI [18] was > 100 µM. The TGI [19] was > 100 µM, the TGI [20] was > 100 µM and the TGI [21] was > 100 µM. The TGI [22] was 59.3 µM, the TGI [23] was > 100 µM and the TGI [24] was > 100 µM. For the same molecule, the TGI [25] was > 100 µM, the TGI [26] was > 100 µM and the TGI [27] was > 100 µM. The TGI [28] was > 100 µM, the TGI [29] was > 100 µM and the TGI [30] was > 100 µM. For the same molecule, the TGI [31] was > 100 µM, the TGI [32] was > 100 µM and the TGI [33] was > 100 µM. For the same molecule, the TGI [34] was > 100 µM, the TGI [35] was > 100 µM and the TGI [36] was > 100 µM. The TGI [37] was > 100 µM, the TGI [38] was > 100 µM and the TGI [39] was > 100 µM. The TGI [40] was > 100 µM, the TGI [41] was 76.2 µM and the TGI [42] was > 100 µM. For the same molecule, the TGI [43] was > 100 µM, the TGI [44] was > 100 µM and the TGI [45] was > 100 µM. The TGI [46] was > 100 µM, the TGI [47] was > 100 µM and the TGI [48] was > 100 µM. The TGI [49] was > 100 µM, the TGI [50] was > 100 µM and the TGI [51] was > 100 µM. For the same molecule, the TGI [52] was > 100 µM, the TGI [53] was > 100 µM and the TGI [54] was > 100 µM. The TGI [55] was > 100 µM, the TGI [56] was > 100 µM and the TGI [57] was 71 µM. For the same molecule, the TGI [58] was > 100 µM and the TGI [59] was > 100 µM.
With `CC(C)(Cl)C(Cl)CC/C(CBr)=C(\Cl)CCl` (configuration not stated) the TGI [1] was 23 µM, the TGI [2] was 35.3 µM and the TGI [3] was 1.88 µM. For the same molecule, the TGI [4] was 20 µM, the TGI [5] was 25.3 µM and the TGI [6] was 27.7 µM. The TGI [7] was 16.2 µM, the TGI [8] was 29.1 µM and the TGI [9] was 4.12 µM. It also gave a TGI [10] of 12.6 µM, a TGI [11] of 28 µM and a TGI [12] of 8.56 µM. The TGI [13] was 14.7 µM, the TGI [14] was 9.47 µM and the TGI [15] was 8.84 µM. For the same molecule, the TGI [16] was 4.59 µM, the TGI [17] was 7.28 µM and the TGI [18] was 32.1 µM. It also gave a TGI [19] of 14 µM, a TGI [20] of 4.66 µM and a TGI [21] of 9.92 µM. For the same molecule, the TGI [22] was 14.1 µM, the TGI [23] was 2.63 µM and the TGI [24] was 8.74 µM. For the same molecule, the TGI [25] was 14.4 µM, the TGI [26] was 1.35 µM and the TGI [27] was 34 µM. It also gave a TGI [28] of 26 µM, a TGI [29] of 11.1 µM and a TGI [30] of 15.5 µM. The TGI [31] was 27.7 µM, the TGI [32] was 28.3 µM and the TGI [33] was 31.8 µM. For the same molecule, the TGI [34] was 17.9 µM, the TGI [35] was 15.3 µM and the TGI [36] was 23.7 µM. The TGI [37] was 6.58 µM, the TGI [38] was 20.2 µM and the TGI [39] was 4.65 µM. For the same molecule, the TGI [40] was 4.35 µM, the TGI [41] was 2.95 µM and the TGI [42] was 7.45 µM. For the same molecule, the TGI [43] was 6.5 µM, the TGI [44] was 34.1 µM and the TGI [45] was 26.7 µM. For the same molecule, the TGI [46] was 5.26 µM, the TGI [47] was 19.5 µM and the TGI [48] was 12.2 µM. It also gave a TGI [49] of 3.31 µM, a TGI [50] of 28.3 µM and a TGI [51] of 32.7 µM. For the same molecule, the TGI [52] was 3.79 µM, the TGI [53] was 30.6 µM and the TGI [54] was 3.61 µM. It also gave a TGI [55] of 3.63 µM, a TGI [56] of 5.32 µM and a TGI [57] of 3.88 µM. The TGI [58] was 17 µM and the TGI [59] was 17.1 µM.
